Assay results from patent US7517526B2, “Enhancement of antibody-cytokine fusion protein mediated immune responses by combined treatment with immunocytokine uptake enhancing agents” (Merck Patent GmbH, priority 2000, dated 2009).
Converted amounts (≈) assume the structure as drawn. Read-outs that look alike come from different tables or passages of the source.

Key:
[1] = cited from earlier work
[2] = biological target: P-glycoprotein (Homo sapiens, UniProt P08183); settings: cited from earlier work
[3] = system: multidrug resistant tumors; settings: cited from earlier work
[4] = system: LLC/KSA tumors; type: in vivo
Experimental: (§1) For tumor growth studies either LLC/KSA or CT26/KSA tumors were implanted subcutaneously on the backs of mice. For LLC/KSA studies, tumors were transplanted from several stock tumors that had been injected with a single cell suspension of 1×10^6 cells in 100 ul of PBS. After about two weeks, tumors were aseptically collected, passed through a sieve fitted with a 150 μm screen. Cells were then passed through a syringe and 23 gauge needle tow or three times, washed twice, and resuspended in PBS. A single cell suspension of 1×10^6 LLC/KSA cells in 100 ul of PBS was injected subcutaneously using a 30 ½ gauge needle on the backs of mice. For CT26/KSA studies, cells growing exponentially in culture were injected as a single cell suspension of 1×10^6 cells in 100 μl of PBS. After tumors had become established, about 2 weeks after implantation, dosing was initiated on Day 0. Tumors were measured with calipers in three dimensions twice weekly. Tumor volumes were calculated using the equation: Volume=½×4/3π(L/2×W/2×H) where L=length, W=width and H=height of the tumor. Animals were weighed and general health was monitored during the course of the study. When tumors became necrotic or if animals became moribund, the animals were euthanized by CO2 asphyxiation.
Data are presented in graphic form. Graphs depict individual or average tumor volumes (+/− SEM) during and after dosing. Data are also expressed as the percent of control of average tumor volumes from treated mice relative to vehicle treated mice. Student's t test was performed on the individual tumor volumes to determine significant differences.

[5] = system: CT26/KSA cells; experiment: Cytotoxicity assay (MTS, verified by crystal violet); type: cell-based; settings: Mus musculus, CT26, 144 h; read-out: Paclitaxel IC50
Experimental: (§2) The cell lines engineered for use in animal models (example 1) were tested for their sensitivity to taxane-induced cytotoxicity in cell culture in the presence or absence of the an IL-2 based immunocytokine consisting of the humanized form of the KS-1/4 antibody fused at the carboxyl terminus of the H chain to human IL-2 (huKS-huγ1-huIL2, hereafter abbreviated, KS-IL2). Cells were seeded at 1000 cell/well in 96 well flat-bottom plates and incubated for 24 hours at 37° C., 7% CO2. Paclitaxel, at 2-fold dilutions from 200 ng/ml to 3.125 ng/ml, KS-IL2, at 200 ng/ml and IL-2, at 33.3 ng/ml (the equivalent amount of IL-2 in KS-IL2) were added in duplicate to the cell culture plates and incubated for 6 days at 37° C., 7% CO2. The MTS calorimetric assay (Promega), a measure of cell viability based on the cellular conversion of a tetrazolium salt, was performed directly in the 96 well plates. After plates were read and recorded, viable adherent cells were stained with Crystal violet (Sigma, St. Louis, Mo). Crystal violet stained plates were used to verify MTS assay results. […] The IC50 is the concentration of drug that produced cytotoxicity at a level of 50% of control.
(§3) A cytotoxicity assay was performed with paclitaxel (3 to 200 ng/ml) alone or combined with KS-IL2 (200 ng/ml) or IL-2 (33.3 ng/ml, the equivalent amount of IL-2 in KS-IL2) against CT26/KSA, LLC/KSA and 4T1/KSA cells.

[6] = system: 4T1/KSA cells; experiment: as above; type: cell-based; settings: Mus musculus, 144 h; read-out: Paclitaxel IC50
Experimental: as §2, §3

[7] = system: LLC/KSA cells; experiment: as above; type: cell-based; settings: Mus musculus, 144 h; read-out: Paclitaxel IC50
Experimental: as §2, §3

[8] = system: 4T1/KSA breast carcinoma cells; experiment: Experimental lung metastasis model with 4T1/KSA cells; type: in vivo, mouse; settings: for reduction of average lung weights: FIG. 4, combination with KS-IL2 15 μg/dose x 3 days given 4 hr after paclitaxel
Experimental: For experimental lung metastases studies, a single cell suspension of 2.5×10^5 4T1/KSA cells in 100 μl of PBS was slowly injected using a 27½ gauge needle into the lateral tail vein on Day 0. About 3 weeks-after inoculation animals were sacrificed; their lungs were removed and weighed. […] Data are presented in graphic form. Graphs depict average tumor burdens (+/− SEM) at time of sacrifice. Tumor burden was determined by subtracting the weight of a normal lung from the weight of the experimental lungs.
For this experiment we used an experimental lung metastasis model induced with 4T1/KSA breast carcinoma cells. The doses of the drugs were selected to be sub-optimal by themselves so that any potential additive or synergistic activity could be observed.

[9] = system: CT26/KSA colon carcinoma skin tumors; experiment: CT26/KSA established skin tumor growth assay; type: in vivo, mouse; settings: paclitaxel single dose 75 mg/kg
Experimental: as §1
Data are presented in graphic form. Graphs depict individual or average tumor volumes (+/− SEM) during and after dosing. […]

[10] = system: CT26/KSA liver metastases; settings: FIG. 6, combination: KS-IL2 7 ug for 5 days from one day later
Experimental: For experimental hepatic metastases studies, mice were anesthetized using 80 mg/kg ketamine HCL (Fort Dodge Animal Health, Fort Dodge, Iowa) and 5 mg/kg xylazine (Bayer, Shawnee Mission, Kans.). A single cell suspension of 1×10^5 CT26/KSA cells in 100 μl of DMEM containing 25 mM HEPES (GIBCO) was injected using a 27½ gauge needle beneath the splenic capsule over a period of 60 seconds on Day 0. After another 2 minutes the splenic vessels were cauterized with a cautery unit (Roboz, Rockville, Md.) and the spleen removed. Animals were sutured using autoclips. Three weeks after inoculation the animals were sacrificed; their livers were removed and weighed. The livers were then fixed and stained in Bouin's solution (Sigma, St. Louis Mo.).
Graphs depict average tumor burdens (+/− SEM) at the time of sacrifice. Tumor burdens were determined by subtracting the weight of a normal liver from the weight of the experimental livers. Data are also expressed as the percent of control of the average tumor burden from treated mice relative to vehicle treated mice. Student's t test was performed on the individual tumor burdens to determine significant differences.
A second experiment was performed using the CT26/KSA model, this time testing the effect of combined therapy on established liver metastases and again using the 24 hr delay between paclitaxel administration and KS-IL2 treatment. We also compared the dose response of paclitaxel in the combination therapy. Mice were injected with 25, 50, or 75 mg/kg of paclitaxel on Day 5 after metastasis induction, alone or followed one day later with KS-IL2 (7 ug) for 5 days.

[11] = system: 4T1 breast carcinoma cells; settings: FIG. 9; cyclophosphamide single dose 15 or 40 mg/kg; combination: huKS-IL2 15 ug/day for 5 days from three days later
Experimental: 4T1 breast carcinoma cells were injected intravenously into immuno-competent mice to establish pulmonary metastases 3 days before treatment.

[12] = system: breast carcinoma subcutaneous tumors; experiment: Tumor growth assay, established breast carcinoma subcutaneous tumors; type: in vivo, mouse; settings: FIG. 9B; cyclophosphamide single dose 80 mg/kg; huKS-IL2 30 μg x 5 daily doses, 3 days after cyclophosphamide in combination; Day 25
[13] = system: lung carcinoma subcutaneous tumors; experiment: Tumor growth assay, established lung carcinoma subcutaneous tumors; type: in vivo, mouse; settings: FIG. 9C; cyclophosphamide single dose 80 mg/kg; huKS-IL2 20 μg x 5 daily doses, 3 days after cyclophosphamide in combination; Day 20
[14] = comparative statement, Polizzi et al. 1999
[15] = FIG. 3, paclitaxel multiple doses 50 mg/kg every other day, combination: KS-IL2 one week following paclitaxel

P-glycoprotein, sequence (P08183 whole entry): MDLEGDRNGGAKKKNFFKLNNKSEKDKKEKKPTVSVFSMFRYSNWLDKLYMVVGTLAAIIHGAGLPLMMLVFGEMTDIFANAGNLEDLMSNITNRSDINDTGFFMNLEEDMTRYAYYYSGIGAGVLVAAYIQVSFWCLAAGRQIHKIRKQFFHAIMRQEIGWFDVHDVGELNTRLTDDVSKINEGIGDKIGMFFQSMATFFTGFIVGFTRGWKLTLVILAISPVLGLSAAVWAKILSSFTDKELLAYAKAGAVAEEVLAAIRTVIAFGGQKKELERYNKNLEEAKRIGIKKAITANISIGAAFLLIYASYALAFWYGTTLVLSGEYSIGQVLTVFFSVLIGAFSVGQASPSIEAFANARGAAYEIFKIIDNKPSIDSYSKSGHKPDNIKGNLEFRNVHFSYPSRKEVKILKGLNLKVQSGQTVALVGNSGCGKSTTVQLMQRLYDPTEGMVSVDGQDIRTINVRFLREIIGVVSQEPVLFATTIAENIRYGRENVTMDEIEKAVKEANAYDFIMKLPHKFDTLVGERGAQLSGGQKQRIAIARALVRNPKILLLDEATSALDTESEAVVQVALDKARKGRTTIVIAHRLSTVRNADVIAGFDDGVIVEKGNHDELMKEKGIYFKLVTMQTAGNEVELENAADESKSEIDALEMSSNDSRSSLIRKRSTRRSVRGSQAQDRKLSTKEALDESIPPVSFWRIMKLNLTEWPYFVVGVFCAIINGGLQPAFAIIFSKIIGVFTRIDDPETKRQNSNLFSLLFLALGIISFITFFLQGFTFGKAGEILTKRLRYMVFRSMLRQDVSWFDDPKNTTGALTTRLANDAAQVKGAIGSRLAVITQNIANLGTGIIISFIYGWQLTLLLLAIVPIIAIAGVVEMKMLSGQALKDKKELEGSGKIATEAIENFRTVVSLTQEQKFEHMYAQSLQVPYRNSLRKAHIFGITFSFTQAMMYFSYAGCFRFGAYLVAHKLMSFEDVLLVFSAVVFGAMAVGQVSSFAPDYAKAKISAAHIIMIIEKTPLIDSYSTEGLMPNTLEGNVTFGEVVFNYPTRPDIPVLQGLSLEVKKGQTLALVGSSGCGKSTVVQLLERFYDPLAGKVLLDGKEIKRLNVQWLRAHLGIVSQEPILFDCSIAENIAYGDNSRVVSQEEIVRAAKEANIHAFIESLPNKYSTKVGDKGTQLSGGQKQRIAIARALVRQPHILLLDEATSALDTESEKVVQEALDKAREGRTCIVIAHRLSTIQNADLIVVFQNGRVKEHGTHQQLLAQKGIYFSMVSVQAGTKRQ

## CC(=O)O[C@H]1C(=O)[C@@]2(C)[C@H]([C@H](OC(=O)c3ccccc3)[C@]34OC(=O)O[C@H]3[C@H](OC(=O)[C@H](O)[C@H](CC(C)C)NC(=O)OC(C)(C)C)C(C)=C1C4(C)C)[C@]1(OC(C)=O)CO[C@@H]1C[C@@H]2O [IDN5109]
[1]; [14]
  neurotoxic side effects: less neurotoxic side effects
  tolerated dose: higher tolerated dose
[1]; in vivo, po
  oral bioavailability: orally bioavailable
[2]
  substrate for P-glycoprotein: poor substrate
[3]
  activity against multidrug resistant tumors: generally more active

## N.N.O=C([O-])C1(C(=O)[O-])CCC1.[Pt+2] [Carboplatin]
[4]; FIG. 10, Carboplatin 75 mg/kg Day 0, KS-IL2 20 ug per day for 5 days, three days after Carboplatin in combination
  effect on tumor growth / average tumor volume on Day 20: modest decrease

## CC(=O)O[C@H]1C(=O)[C@@]2(C)[C@H]([C@H](OC(=O)c3ccccc3)[C@]3(O)C[C@H](OC(=O)[C@H](O)[C@@H](NC(=O)c4ccccc4)c4ccccc4)C(C)=C1C3(C)C)[C@]1(OC(C)=O)CO[C@@H]1C[C@@H]2O [paclitaxel]
[5]
  IC50: 0.027 µg/mL (≈ 0.0316 µM)
[6]
  IC50: 0.016 µg/mL (≈ 0.0187 µM)
[7]
  IC50: 0.006 µg/mL (≈ 0.00703 µM)
[8]; 25 mg/kg of paclitaxel given 3 times every other day
  weight loss, comparison of groups: greatest weight loss
[8]; paclitaxel multiple doses 25 mg/kg x 3 days
  reduction of average lung weights: 49%
[8]; paclitaxel single dose 75 mg/kg
  reduction of average lung weights: 43%
[9]; Example 9, huKS-muγ2a-muIL12 5 μg per day for 5 days, starting 24 hr after paclitaxel in combination
  effect on tumor growth: very little effect
[9]; FIG. 5
  effect on tumor growth, alone: no effect
[10]; paclitaxel 25 mg/kg on Day 5
  tumor burden: 49 % of control
[10]; paclitaxel 50 mg/kg on Day 5
  tumor burden: 23 % of control
[10]; paclitaxel 75 mg/kg on Day 5
  tumor burden: 10 % of control
[4]; FIG. 2, paclitaxel single dose 80 mg/kg, KS-IL2 20 μg i.v. Days 0-4
  effect on tumor growth, agent given alone: No effect
[4]; [15]
  average tumor volume: 63 % of control
  tumor growth delay (TGD): 4 days

## O=P1(N(CCCl)CCCl)NCCCO1 (centres unmarked) [cyclophosphamide]
[11]
  lung metastasis tumor burden: modest reduction
[12]
  reduction of average tumor volumes: 69%
[13]
  reduction of average tumor volumes: 27%
